Measurements published in ChEMBL document CHEMBL1201862, “PubChem BioAssay data set” (2004).
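Each compound was tested at five concentrations against cells in 96-well plates for 48 hours. Here, GI50 denotes the concentration required for 50% inhibition of growth.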 Active and inactive are the calls of the source. No stated cut-off is given here; in the data, active = GI50 up to about 1.1 µM and inactive = higher.

Tests used:
Experiment in all cases: NCI anticancer screen, dose series, 48 h
[1] = tested on: KM-20L2
[2] = tested on: M19-MEL
[3] = tested on: DMS-114
[4] = tested on: RXF 631
[5] = tested on: LXFL 529
[6] = tested on: HOP-18
[7] = tested on: DLD-1
[8] = tested on: DMS-273
[9] = tested on: XF498

Measured: GI50

CC1=C(Cl)C=CP(=O)(OC(C)C)C1 (centres undefined)
inactive: [1] > 100 µM | [2] > 100 µM | [3] > 100 µM | [4] 33.1 µM | [5] > 100 µM | [6] > 100 µM | [7] 35.7 µM

CC(=O)N(CCN)CCN
inactive: [8] > 10 µM | [9] > 100 µM | [1] > 10 µM | [2] > 10 µM | [3] > 10 µM | [4] > 10 µM | [5] > 10 µM | [7] > 100 µM

CCOc1cc(/C=C/C=C/c2ccc(N(C)C)cc2)[s+]c2ccccc12
inactive: [8] 9.31 µM | [9] 20.8 µM | [1] 71 µM | [2] 26.2 µM | [3] 5.27 µM | [4] 33 µM | [5] 12.3 µM | [6] 99.1 µM | [7] 23.9 µM

O=c1c2cccnc2ncn1CCCN1CCCCC1
inactive: [8] > 100 µM | [9] > 100 µM | [2] > 100 µM | [3] > 100 µM | [7] > 100 µM

CNS(=O)(=O)NN(C)S(=O)(=O)c1ccc(C)cc1
inactive: [1] > 100 µM | [2] > 100 µM | [3] > 100 µM | [7] > 100 µM

C/C(CCN(C)C)=N\OC(=O)c1ccccc1
inactive: [8] > 100 µM | [1] > 100 µM | [2] > 100 µM | [3] > 100 µM | [5] > 100 µM | [6] 1.66 µM | [7] > 100 µM

COC(OC)c1cc2c(cc1C=O)OCO2
inactive: [8] > 100 µM | [1] > 100 µM | [2] > 100 µM | [3] > 100 µM | [7] 34.9 µM

CCC(C)n1c(C)nc2c1C(=O)c1ccccc1C2=O (centres undefined)
inactive: [8] 34.2 µM | [9] 44.8 µM | [1] 43.7 µM | [2] 18.2 µM | [5] 33.4 µM | [7] 27.2 µM

COc1cc2c3c(c1OC)Oc1ccc(cc1)CC1c4c(cc(OC)c(OC)c4Oc4ccc(cc4)CC3N(C)CC2)CCN1C (centres undefined)
inactive: [8] 15.3 µM | [1] 19.8 µM | [2] 17.3 µM | [3] 19.8 µM | [5] 20.6 µM | [6] 25.9 µM | [7] 29.2 µM

Cc1coc2c1C(=O)C(=O)c1ccccc1-2
inactive: [8] 1.54 µM | [1] 3.36 µM | [7] 1.98 µM
active: [3] 0.161 µM | [5] 0.403 µM | [6] < 0.01 µM

Cc1ccccc1C(=O)c1ccccc1O
inactive: [8] > 100 µM | [9] > 100 µM | [1] > 100 µM | [2] > 100 µM | [3] > 100 µM | [4] > 100 µM | [5] > 100 µM | [6] > 100 µM | [7] > 100 µM

COC(=O)C1=CC(=O)[C@@H]2CCCC[C@H]12
inactive: [8] > 100 µM | [1] > 100 µM | [2] > 100 µM | [3] > 100 µM | [4] > 100 µM | [5] > 100 µM | [6] > 100 µM | [7] > 100 µM

O=C1CCC2(c3ccc(Cl)cc3)Nc3ccccc3N12 (centres undefined)
inactive: [9] 77.1 µM | [1] > 100 µM | [2] 69 µM | [3] 45.2 µM | [4] > 100 µM | [5] 47 µM | [6] 50.2 µM | [7] 71 µM
